# Assay results taken from a melting point compilation (Tetko et al.).
row,SMILES,melting point
1,O=C(O)c1cc(N=Nc2ccc(S(=O)(=O)Nc3ccccn3)cc2)ccc1O,260 to 265 °C
2,O=C(CO)N1CCc2ccccc2C1,99 to 101 °C
3,OCc1cnns1,34 to 36 °C
4,Cc1c(NC(=O)CCCl)cccc1[N+](=O)[O-],131 to 133 °C
5,O=C(O)CNC(=O)CC12CC3CC(CC(C3)C1)C2,165 to 167 °C
6,CCOC(=O)c1cc(C23CC4CC(CC(C4)C2)C3)[nH]n1,192 to 194 °C
7,O=C(CCCl)Nc1ccccn1,104 to 106 °C
8,Cc1nn(-c2ccccc2)c(Oc2ccccc2)c1C=O,92 to 94 °C
9,Nc1cc(Cl)cc(Br)c1O,83 to 85 °C
10,Cc1nnc(C2Cc3ccccc3CN2)o1 (configuration not stated),65 to 67 °C
11,CCOc1ccc2cc(C(=O)O)[nH]c2c1,168 to 170 °C
12,O=S1(=O)C=C(Nc2ccccc2)CC1,153 to 155 °C
13,COC(=O)CNc1ccccc1,45 to 47 °C
14,O=S(=O)(c1cccs1)N1CCNCC1,98 to 100 °C
15,O=Cc1cc(Cl)cc(Cl)c1OC(F)F,51 to 53 °C
16,CCNC(=O)Nc1cc(F)ccc1N,147 to 149 °C
17,CS(=O)(=O)c1ccc2c(c1)NCCO2,117 to 119 °C
18,CNC(=O)Cn1cnc(N)n1,149 to 151 °C
19,O=C(O)Cc1cn(-c2ccccc2)nc1-c1ccc(Br)cc1,135 to 137 °C
20,N#Cc1cc(N)ncc1Br,184 to 186 °C
21,CCc1ccc(O)c(C(=O)O)c1,118 to 120 °C
22,O=C(O)CNC(=O)/C=C/c1ccco1,218 to 221 °C
23,c1n[nH]cc1C1CCCCN1 (configuration not stated),114 to 116 °C
24,COCCNc1ccc([N+](=O)[O-])cc1C(=O)O,204 to 206 °C

row,SMILES,melting point
1,Oc1ccc(-c2ccccc2)nc1,174 to 176 °C
2,O=C(O)c1ccc(Cl)cc1N1CCCC1=O,218 to 220 °C
3,COc1cc(Cl)c(Cl)cc1C(=O)O,148 to 150 °C
4,COc1cc(OC)cc(-c2nnc(S)n2N)c1,178 to 180 °C
5,O=C1Nc2ccccc2C1=NO,242 to 244 °C
6,COC1CCN(C(=O)Nc2cccc(C(C)=O)c2)CC1,104 to 106 °C
7,Cc1ccc(S(=O)(=O)Cc2ccc(C(=O)O)cc2)cc1,281 to 283 °C
8,O=C(O)c1ccc(NCCO)cc1,196 to 198 °C
9,CC(C)(C)CNC(=O)c1ccc(C(=O)O)cn1,239 to 241 °C
10,Nc1noc(-c2ccccc2)n1,164 to 166 °C
11,O=C(O)C1CCCn2ccnc21 (configuration not stated),156 to 158 °C
12,Nc1cc(C(=O)O)ccc1NCCCN1CCOCC1,216 to 218 °C
13,Nc1cc(-c2cc(Br)ccc2Cl)[nH]n1,158 to 160 °C
14,CC(=O)c1cnc2nncn2c1C,192 to 193 °C
15,Cc1ccc(C)c(OCc2nnc(S)o2)c1,135 to 137 °C
16,Nc1cccc(NC(=O)Nc2cccc(C(F)(F)F)c2)c1,180 to 182 °C
17,CC(C)(C)[Si](C)(C)Oc1cc(C(=O)O)cc2ccccc12,153 to 155 °C
18,CCC(C)n1c(SCC(=O)O)nnc1-c1ccccc1 (configuration not stated),155 to 157 °C
19,Nc1cccc(C(=O)N2CCOCC2)c1,82 to 84 °C
20,CN(Cc1ccccc1)c1nc2ccccc2[nH]1,206 to 208 °C
21,Cc1[nH]n(-c2ccc(Cl)c(Cl)c2)c(=N)c1C,156 to 158 °C
22,CC(=O)C(Cl)C(=O)Nc1ccccc1 (configuration not stated),101 to 104 °C
23,COc1ccc(-c2csc(N)n2)cc1C,179 to 181 °C
24,CC(N)c1nc(-c2ccccc2)c[nH]1 (configuration not stated),129 to 131 °C

row,SMILES,melting point
1,O=C1CCc2ccccc2CN1,124 to 126 °C
2,O=C(O)c1ccc(=O)n(-c2cccc(Br)c2)c1,279 to 281 °C
3,N#Cc1ccc(N2C(=O)NC(CCC(=O)O)C2=O)cc1 (configuration not stated),220 to 222 °C
4,CSCC(=O)Nc1ccc(O)cc1,107 to 109 °C
5,COCC(C)NS(=O)(=O)c1ccc(Cl)c([N+](=O)[O-])c1 (configuration not stated),209 to 211 °C
6,Cc1nc(C(=O)N(C)C)ccc1C(=O)O,136 to 138 °C
7,O=C(CCl)NC(c1ccccc1)c1ccc2[nH]c(C(F)(F)F)nc2c1 (configuration not stated),193 to 195 °C
8,Nc1ccc2[nH]c(-c3cc(F)ccc3F)nc2c1,188 to 190 °C
9,O=C(O)c1ccc(Cn2cc(Cl)cn2)o1,117 to 119 °C
10,COCc1ccccc1C(=O)O,94 to 96 °C
11,CC(=O)CC(=O)c1ccncc1,63 to 65 °C
12,COC(=O)C=CN(C)C,43 to 45 °C
13,COc1ccc(-c2cc(C(=O)O)n(-c3ccccc3)n2)cc1,190 to 192 °C
14,NC(=O)Cn1cnc2cc(C(=O)O)ccc21,298 to 300 °C
15,Sc1nnc(-c2ccncc2)n1Cc1ccccc1,195 to 197 °C
16,O=C(O)c1ccccc1NCc1ccccc1Cl,183 to 185 °C
17,Cc1cccc(C#N)n1,70 to 72 °C
18,COC(=O)C1CSCCC1=O (configuration not stated),67 to 69 °C
19,Cc1ccc(N(C)C(C)C)c(C(=O)O)c1,69 to 71 °C
20,CC(C)(C)c1ccc(C(C)(C)C(=O)O)cc1,165 to 167 °C
21,Cc1nn(-c2ccc(Cl)cc2)c(C)c1CC(=O)O,178 to 180 °C
22,O=C(O)c1ccc2c(c1)C(=O)N(C1CCCCC1)C2=O,188 to 201 °C
23,c1ccc(Cc2nnc3n2CCNC3)cc1,111 to 113 °C
24,Oc1nc(S)nc2c1CCC2,288 to 290 °C

row,SMILES,melting point
1,Cc1ccc(O)c(S(=O)(=O)N2CCNCC2)c1,187 to 189 °C
2,Nc1cc(S(=O)(=O)Nc2ccc(Cl)cc2)ccc1N1CCOCC1,55 to 58 °C
3,Nc1cc(S(=O)(=O)NC2CC2)ccc1F,101 to 103 °C
4,CC1CC(=O)NC(=O)C1,144 to 146 °C
5,Cc1nc(N)nc(C2CC2)n1,114 to 116 °C
6,COc1cccc(Nc2nnc(SCC(=O)O)s2)c1,135 to 137 °C
7,O=C(CCl)NCCc1ccsc1,75 to 77 °C
8,CN(CC(=O)O)C1CC1,101 to 103 °C
9,Oc1nc(-c2ccc(Cl)cc2)cs1,218 to 220 °C
10,Cc1nc2c3ccccc3nc(Cl)n2n1,140 to 142 °C
11,CCS(=O)(=O)c1ccccc1C(=O)O,49 to 53 °C
12,N#CCNC(=O)c1ccc(Br)cc1,170 to 172 °C
13,O=C(O)COc1ccc2cc(Br)ccc2c1,224 to 226 °C
14,CC1(c2ccc(S(N)(=O)=O)cc2)NC(=O)NC1=O (configuration not stated),249 to 251 °C
15,Nn1c(S)nnc1COc1ccccc1,163 to 167 °C
16,CC(=O)c1cccc(N2CCCS2(=O)=O)c1,84 to 86 °C
17,COC(=O)c1cc2c(nc1N)CCCC2,126 to 128 °C
18,N#Cc1ccc(C(=O)N2CCOCC2)cc1,144 to 146 °C
19,c1ccc2c(c1)CN1CCCC1CN2 (configuration not stated),107 to 109 °C
20,O=C1c2ccccc2C(=O)N1Cc1ccnc2ccnn12,274 to 276 °C
21,O=C(CN1CCCC1)Nc1c(I)cc(I)cc1I,184 to 186 °C
22,Cc1nc(COc2ccc(Cl)cc2)sc1C(=O)O,239 to 241 °C
23,O=C(O)CCSc1ccc(Cl)cc1,85 to 87 °C
24,CC(C)(C)OC(=O)NC(C)(C)c1noc(CCl)n1,79 to 81 °C

row,SMILES,melting point
1,CC(Cl)c1nnc(-c2ccc(Cl)c(Cl)c2)o1 (configuration not stated),93 to 95 °C
2,N#Cc1c[nH]c(C(=O)O)c1,256 to 258 °C
3,CCOC(=O)c1ccn(-c2ccccc2N)n1,79 to 81 °C
4,CC(C)(C)OC(=O)N1CCNc2ccccc2C1,69 to 71 °C
5,Nc1cnn(CC(=O)O)c1,206 to 208 °C
6,CNc1ccnc(C(N)=O)c1,157 to 159 °C
7,CC(NC(=O)c1ccc(S(=O)(=O)N(C)C)cc1)C(=O)O (configuration not stated),180 to 182 °C
8,O=C(O)Cn1cccn1,139 to 141 °C
9,O=C(O)c1ccc(OC2CCC2)cc1Cl,127 to 129 °C
10,O=C(O)C1CCN(S(=O)(=O)c2cccc(C(F)(F)F)c2)CC1,135 to 136 °C
11,Nc1nncc(-c2ccc(Cl)s2)n1,259 to 261 °C
12,N#Cc1c[nH]c2ccc(Cl)cc2c1=O,381 to 383 °C
13,O=c1c(Oc2ccccc2)coc2cc(O)ccc12,197 to 199 °C
14,Cc1ccccc1-c1noc(S)n1,150 to 152 °C
15,O=C(O)c1ccc(NS(=O)(=O)c2cccs2)cc1,226 to 228 °C
16,C#CCNC(=O)Nc1ccccc1F,134 to 136 °C
17,CCn1cc(C(=O)C(=O)O)cn1,129 to 131 °C
18,FC(F)Sc1nc2ccccc2[nH]1,< 17 °C
19,CCOC(=O)c1sc2nc(Cc3ccccn3)[nH]c(=O)c2c1C,231 to 233 °C
20,CN(C)c1ccc(NC(=S)NN)cc1,167 to 169 °C
21,COc1cc(-n2cccc2)c(Cl)cc1C(=O)O,152 to 154 °C
22,COc1cc([N+](=O)[O-])ccc1I,127 to 129 °C
23,CC1C(=O)Nc2ccc(S(=O)(=O)Cl)cc21 (configuration not stated),164 to 168 °C
24,NS(=O)(=O)c1cnn(-c2ccccc2)c1,196 to 198 °C

row,SMILES,melting point
1,N#CCc1nnc2n1CCCCC2,113 to 115 °C
2,NC(C(=O)O)c1ccccc1C(F)(F)F (configuration not stated),282 to 284 °C
3,NCc1ccc(N2CCC(O)CC2)c(F)c1,104 to 106 °C
4,CC(C)(C)c1ccc(=O)[nH]n1,163 to 165 °C
5,O=Cc1c(Cl)nc(Cl)n1-c1ccccc1,133 to 135 °C
6,CCCc1ccc(N2CC(C(=O)O)CC2=O)cc1 (configuration not stated),136 to 138 °C
7,CCC(=O)Nc1ccc(O)c(C(=O)O)c1,217 to 219 °C
8,Cn1ccnc1-c1nnc(N)s1,263 to 265 °C
9,O=C(NCc1cccc(Cl)c1)c1ccc(F)cc1,59 to 61 °C
10,O=C(O)C1Cc2ccccc2CN1C(=O)c1ccccc1 (configuration not stated),141 to 143 °C
11,Cc1cc(C)c(C(=O)CCl)c(C)c1C(=O)CCl,136 to 138 °C
12,Cc1nc(Cl)nc(N(C)C)n1,81 to 83 °C
13,COC(=O)c1cc(Br)cc(N)c1Cl,73 to 75 °C
14,C#CCOc1ccccc1C=O,70 to 72 °C
15,O=C(O)c1cccc(OCc2cccc(Cl)c2)c1,144 to 146 °C
16,Cc1nc(-c2ccccc2)sc1N,117 to 119 °C
17,COc1ccc(Cc2nnn[nH]2)cc1F,191 to 193 °C
18,CNCc1c(C)nn(-c2ccccc2C)c1C,41 to 43 °C
19,Fc1cc2nc(Cl)ccc2cc1Br,161 to 163 °C
20,NCc1cnn(-c2ccc(F)cc2F)c1,49 to 51 °C
21,O=C(O)c1sccc1S(=O)(=O)N1CCCCC1,111 to 113 °C
22,CS(=O)(=O)c1ccc(Cl)c([N+](=O)[O-])c1,121 to 123 °C
